Test results from patent publication US8518980B2, “Treatment of Duchenne muscular dystrophy” (Summit Corporation PLC, priority 2006, dated 2013).

System: Utrophin A promoter linked to a luciferase reporter gene (H2K/mdx/Utro A reporter cell line)
Assay: Luciferase reporter assay (murine H2K cells)
Settings: Mus musculus, H2K mdx

How did the activity at 10 µM turn out when `CC(C)(C)c1ccc2oc(-c3ccc(N)cc3)nc2c1` [Example 593, 4-(5-Tert-butylbenzo[d]oxazol-2-yl)aniline] was run?
The activity at 10 µM was 301 to 400%.

For `CCc1ccc(-c2nc3cc(N)ccc3o2)cc1` [Example 481, 2-(4-ethylphenyl)benzo[d]oxazol-5-amine], which activity at 10 µM is on record?
The activity at 10 µM was 201 to 300%.

How did the activity at 10 µM turn out when `CCC(=O)Nc1ccc(-c2nc3ccccc3s2)cc1` [Example 667, N-(4-(benzo[d]thiazol-2-yl)phenyl)propionamide] was run?
Its activity at 10 µM is 201 to 300%.

Which activity at 10 µM does the source give for `c1ccc2sc(-c3ccc4c(c3)OCO4)nc2c1` [Example 608, 2-(Benzo[d][1,3]dioxol-5-yl)benzo[d]thiazole] here?
Its activity at 10 µM is over 401%.

Which activity at 10 µM does the source give for `CC(=O)Nc1ccc2[nH]c(-c3ccco3)nc2c1` [Example 534, N-(2-(furan-2-yl)-1H-benzo[d]imidazol-5-yl)acetamide] here?
Its activity at 10 µM is under 200%.

Which activity at 10 µM does the source give for `CN(C)c1ccc(-c2nc3ccccc3[nH]2)cc1` [Example 498, 4-(1H-benzo[d]imidazol-2-yl)-N,N-dimethylaniline] here?
Its activity at 10 µM is under 200%.

With `O=C(NCCc1ccccc1)c1cc2ccccc2o1` [Example 665, N-phenethylbenzofuran-2-carboxamide] as the molecule, how does the activity at 10 µM read?
Its activity at 10 µM is 201 to 300%.

`c1csc(-c2nc3cc4ccccc4cc3[nH]2)c1` [Example 561, 2-(thiophen-2-yl)-1H-naphtho[2,3-d]imidazole] was tested. Which activity at 10 µM did it give?
Its activity at 10 µM is 301 to 400%.

`CC(C)C(=O)Nc1ccc(-c2nc3ccccc3s2)cc1` [Example 651, N-(4-(benzo[d]thiazol-2-yl)phenyl)isobutyramide] was tested. Which activity at 10 µM did it give?
The activity at 10 µM was 301 to 400%.

For `COc1cccc(-c2nc3ccccc3[nH]2)c1` [Example 600, 2-(3-Methoxyphenyl)-1H-benzo[d]imidazole], which activity at 10 µM is on record?
Its activity at 10 µM is 201 to 300%.

`O=C(Nc1ccc(-c2nc3ccccc3s2)cc1)C1CCCO1` (stereo not drawn) [Example 680, N-(4-(benzo[d]thiazol-2-yl)phenyl)tetrahydrofuran-2-carboxamide] was tested. Which activity at 10 µM did it give?
The activity at 10 µM was 201 to 300%.

`O=C(Cc1ccccc1)Nc1ccc(-c2nc3ccccc3[nH]2)cc1` [Example 501, N-(4-(1H-benzo[d]imidazol-2-yl)phenyl)-2-phenylacetamide] was tested. Which activity at 10 µM did it give?
The activity at 10 µM was under 200%.

For `Cn1c(NC(=N)c2ccccc2)nc2ccccc21` [Example 669, N-(1-methyl-1H-benzo[d]imidazol-2-yl)benzimidamide], which activity at 10 µM is on record?
The activity at 10 µM was 201 to 300%.

`CCC(C)c1ccc2oc(-c3ccc(N)cc3)nc2c1` (stereo not drawn) [Example 609, 4-(5-Sec-butylbenzo[d]oxazol-2-yl)aniline] was tested. Which activity at 10 µM did it give?
The activity at 10 µM was 301 to 400%.

`Cc1ccc2[nH]c(-c3ccc(N)cc3)nc2c1` [Example 532, 4-(5-methyl-1H-benzo[d]imidazol-2-yl)aniline] was tested. Which activity at 10 µM did it give?
Its activity at 10 µM is under 200%.

Which activity at 10 µM does the source give for `CCc1ccc2oc(-c3cccc(N)c3)nc2c1` [Example 502, 3-(5-ethylbenzo[d]oxazol-2-yl)aniline] here?
Its activity at 10 µM is 201 to 300%.

How did the activity at 10 µM turn out when `CN(C)c1ccc(-c2nc3cc([N+](=O)[O-])ccc3[nH]2)cc1` [Example 509, N,N-dimethyl-4-(5-nitro-1H-benzo[d]imidazol-2-yl)aniline] was run?
The activity at 10 µM was 201 to 300%.

How did the activity at 10 µM turn out when `Cc1ccc(S(=O)(=O)Nc2ccc3[nH]c(-c4ccco4)nc3c2)cc1` [Example 536, N-(2-(furan-2-yl)-1H-benzo[d]imidazol-5-yl)-4-methylbenzenesulfonamide] was run?
Its activity at 10 µM is under 200%.

Which activity at 10 µM does the source give for `Cc1ccc(-c2nc3ccccc3s2)cc1N` [Example 479, 5-(benzo[d]thiazol-2-yl)-2-methylaniline] here?
Its activity at 10 µM is 201 to 300%.

How did the activity at 10 µM turn out when `Cc1cc(-c2nc3ccccc3o2)ccc1[N+](=O)[O-]` [Example 607, 2-(3-Methyl-4-nitrophenyl)benzo[d]oxazole] was run?
The activity at 10 µM was over 401%.

Which activity at 10 µM does the source give for `Cc1cc(C)c2oc(-c3ccc(Cl)c(N)c3)nc2c1` [Example 627, 2-chloro-5-(5,7-dimethylbenzo[d]oxazol-2-yl)aniline] here?
Its activity at 10 µM is over 401%.

With `CCOCCC(=O)Nc1ccc(-c2nc3ccc(C)cc3s2)cc1` [Example 660, 3-ethoxy-N-(4-(6-methylbenzo[d]thiazol-2-yl)phenyl)propanamide] as the molecule, how does the activity at 10 µM read?
Its activity at 10 µM is 301 to 400%.

How did the activity at 10 µM turn out when `Cc1ccc(-c2nc3ccccc3[nH]2)cc1` [Example 613, 2-p-Tolyl-1H-benzo[d]imidazole] was run?
Its activity at 10 µM is 301 to 400%.

With `COc1ccccc1-c1nc2ccccc2s1` [Example 522, 2-(2-methoxyphenyl)benzo[d]thiazole] as the molecule, how does the activity at 10 µM read?
The activity at 10 µM was under 200%.

For `Cc1ccc(-c2nc3cc(N)ccc3o2)cc1Cl` [Example 526, 2-(3-chloro-4-methylphenyl)benzo[d]oxazol-5-amine], which activity at 10 µM is on record?
The activity at 10 µM was 201 to 300%.

Which activity at 10 µM does the source give for `O=C(Nc1nc2ccccc2s1)c1cc(Br)ccc1Cl` [Example 671, N-(benzo[d]thiazol-2-yl)-5-bromo-2-chlorobenzamide] here?
Its activity at 10 µM is 201 to 300%.

With `Clc1ccc(OCc2nc3ccccc3[nH]2)cc1` [Example 495, 2-((4-chlorophenoxy)methyl)-1H-benzo[d]imidazole] as the molecule, how does the activity at 10 µM read?
Its activity at 10 µM is under 200%.

Which activity at 10 µM does the source give for `CC(=O)Nc1ccc(-c2nc3cc(C)cc(C)c3o2)cc1` [Example 529, N-(4-(5,7-dimethylbenzo[d]oxazol-2-yl)phenyl)acetamide] here?
Its activity at 10 µM is 201 to 300%.

With `Cc1nc(Nc2nc3ccccc3o2)nc2c1CCC2` [Example 678, N-(4-methyl-6,7-dihydro-5H-cyclopenta[d]pyrimidin-2-yl)benzo[d]oxazol-2-amine] as the molecule, how does the activity at 10 µM read?
Its activity at 10 µM is 201 to 300%.

`O=[N+]([O-])c1ccc(-c2nc3ccccc3o2)cc1` [Example 477, 2-(4-nitrophenyl)benzo[d]oxazole] was tested. Which activity at 10 µM did it give?
Its activity at 10 µM is under 200%.

For `O=C(Nc1ccc(-c2nc3ccccc3[nH]2)cc1)c1ccccc1` [Example 497, N-(4-(1H-benzo[d]imidazol-2-yl)phenyl)benzamide], which activity at 10 µM is on record?
Its activity at 10 µM is under 200%.

For `Cc1ccc(-c2nc3cc(N)ccc3o2)cc1C` [Example 603, 2-(3,4-Dimethylphenyl)benzo[d]oxazol-5-amine], which activity at 10 µM is on record?
Its activity at 10 µM is 301 to 400%.

`COc1ccc(-c2nc3ccccc3s2)cc1` [Example 582, 2-(4-Methoxyphenyl)benzo[d]thiazole] was tested. Which activity at 10 µM did it give?
Its activity at 10 µM is over 401%.

How did the activity at 10 µM turn out when `CCc1ccc2oc(-c3ccc(C)c(N)c3)nc2c1` [Example 625, 5-(5-ethylbenzo[d]oxazol-2-yl)-2-methylaniline] was run?
Its activity at 10 µM is over 401%.

How did the activity at 10 µM turn out when `c1csc(-c2nc3ccccc3[nH]2)c1` [Example 463, 2-(thiophen-2-yl)-1H-benzo[d]imidazole] was run?
The activity at 10 µM was under 200%.

How did the activity at 10 µM turn out when `Nc1ccc2oc(-c3cccc(Cl)c3)nc2c1` [Example 489, 2-(3-chlorophenyl)benzo[d]oxazol-5-amine] was run?
The activity at 10 µM was 201 to 300%.

Which activity at 10 µM does the source give for `COc1ccc(-c2nc3ccccc3o2)cc1N` [Example 619, 5-(benzo[d]oxazol-2-yl)-2-methoxyaniline] here?
Its activity at 10 µM is over 401%.

How did the activity at 10 µM turn out when `Nc1cccc(-c2nc3cc(Cl)ccc3o2)c1` [Example 622, 3-(5-chlorobenzo[d]oxazol-2-yl)aniline] was run?
The activity at 10 µM was over 401%.

`CC1=NN(c2nc3ccccc3s2)C(=O)/C1=C(/C)NC1CC1` [Example 546, (Z)-1-(benzo[d]thiazol-2-yl)-4-(1-(cyclopropylamino)ethylidene)-3-methyl-1H-pyrazol-5(4H)-one] was tested. Which activity at 10 µM did it give?
The activity at 10 µM was under 200%.

With `CC(=O)Nc1ccc(-c2nc3ccccc3o2)cc1` [Example 589, N-(4-(Benzo[d]oxazol-2-yl)phenyl)acetamide] as the molecule, how does the activity at 10 µM read?
Its activity at 10 µM is 301 to 400%.

`Cc1ccnc(Nc2nc3ccccc3o2)n1` [Example 682, N-(4-methylpyrimidin-2-yl)benzo[d]oxazol-2-amine] was tested. Which activity at 10 µM did it give?
The activity at 10 µM was 201 to 300%.

How did the activity at 10 µM turn out when `Cc1cc(-c2nc3cc(Cl)ccc3o2)ccc1[N+](=O)[O-]` [Example 539, 5-chloro-2-(3-methyl-4-nitrophenyl)benzo[d]oxazole] was run?
The activity at 10 µM was under 200%.

`CCn1c(C)nc2cc(-c3ccccc3)ccc21` [Example 634, 1-ethyl-2-methyl-5-phenyl-1H-benzo[d]imidazole] was tested. Which activity at 10 µM did it give?
Its activity at 10 µM is 301 to 400%.

For `Fc1ccccc1-c1nc2ccccc2[nH]1` [Example 507, 2-(2-fluorophenyl)-1H-benzo[d]imidazole], which activity at 10 µM is on record?
Its activity at 10 µM is 201 to 300%.

`c1ccc(-c2nnc(SCc3nc4ccccc4[nH]3)o2)cc1` [Example 530, 2-((1H-benzo[d]imidazol-2-yl)methylthio)-5-phenyl-1,3,4-oxadiazole] was tested. Which activity at 10 µM did it give?
The activity at 10 µM was under 200%.

For `Cc1ccc2nc(-c3ccc(C)c(N)c3)oc2c1` [Example 635, 2-methyl-5-(6-methylbenzo[d]oxazol-2-yl)aniline], which activity at 10 µM is on record?
Its activity at 10 µM is 301 to 400%.

Which activity at 10 µM does the source give for `O=[N+]([O-])c1ccc2oc(-c3ccccc3)nc2c1` [Example 492, 5-nitro-2-phenylbenzo[d]oxazole] here?
The activity at 10 µM was 201 to 300%.

`CCS(=O)(=O)c1ccc2oc(S)nc2c1` [Example 574, 5-(ethylsulfonyl)benzo[d]oxazole-2-thiol] was tested. Which activity at 10 µM did it give?
Its activity at 10 µM is under 200%.

For `Cc1cccc(NC(=O)c2sc3nc(C)cc(C)c3c2N)c1` [Example 650, 3-amino-4,6-dimethyl-N-m-tolylthieno[2,3-b]pyridine-2-carboxamide], which activity at 10 µM is on record?
The activity at 10 µM was 301 to 400%.

Which activity at 10 µM does the source give for `CC(=O)Nc1ccc2oc(-c3ccc(Cl)cc3Cl)nc2c1` [Example 517, N-(2-(2,4-dichlorophenyl)benzo[d]oxazol-5-yl)acetamide] here?
The activity at 10 µM was 201 to 300%.

Which activity at 10 µM does the source give for `Cc1cc(-c2nc3cc(N)ccc3o2)ccc1Br` [Example 649, 2-(4-bromo-3-methylphenyl)benzo[d]oxazol-5-amine] here?
The activity at 10 µM was 301 to 400%.

Which activity at 10 µM does the source give for `COc1ccc(-c2nc3ccccc3s2)cc1O` [Example 596, 5-(Benzo[d]thiazol-2-yl)-2-methoxyphenol] here?
The activity at 10 µM was over 401%.

With `CC(=O)Nc1cccc(-c2ccc3oc(-c4ccc(Cl)cc4)nc3c2)c1` [Example 575, N-(3-(2-(4-chlorophenyl)benzo[d]oxazol-5-yl)phenyl)acetamide] as the molecule, how does the activity at 10 µM read?
The activity at 10 µM was over 401%.

`Cc1ccc(NC(=O)C(=O)c2c[nH]c3ccccc23)c(Br)c1` [Example 663, N-(2-bromo-4-methylphenyl)-2-(1H-indol-3-yl)-2-oxoacetamide] was tested. Which activity at 10 µM did it give?
Its activity at 10 µM is 301 to 400%.

For `O=C(Nc1ccccc1-c1nc2ccccc2[nH]1)c1ccc(Cl)cc1Cl` [Example 500, N-(2-(1H-benzo[d]imidazol-2-yl)phenyl)-2,4-dichlorobenzamide], which activity at 10 µM is on record?
The activity at 10 µM was under 200%.

Same assay, conditions: Table 1; luciferase level relative to control; final concentration of 10 μM

`CCN(CC)S(=O)(=O)c1ccc2oc(-c3ccc(Cl)cc3)nc2c1` [Example 439, 2-(4′-chlorophenyl)-5-(N,N-diethylsulfonamidyl)-benzoxazole] was tested. Which Activity did it give?
Its Activity is “+ (Up to 200% relative to control)”.

Same assay, conditions: Table 2; luciferase level relative to control; final concentration of 10 μM

How did the Activity turn out when `COc1ccc(OCc2nc3ccccc3[nH]2)cc1` [Example 473, 2-((4-methoxyphenoxy)methyl)-1H-benzo[d]imidazole] was run?
The Activity was “++ (Between 201% and 300% relative to control)”.
